From ChEMBL document CHEMBL1944505, “Novel synthetic methods for N-cyano-1H-imidazole-4-carboxamides and their fungicidal activity” (Bioorg Med Chem Lett, 2012)
Converted amounts (≈) assume the structure as drawn. The source made the active and inactive calls. The rule behind the calls is not given here.

Key:
[1] = Antifungal activity against Dothiorella gregaria at 50 ug/mL by agar plate method; assay type: functional
Rhizoctonia solani [2] = assay: Antifungal activity against Rhizoctonia solani by agar plate method; assay type: functional, organism-based
Fusarium oxysporum = assay: Antifungal activity against Fusarium oxysporum at 50 ug/mL by agar plate method; assay type: functional, organism-based
Fusarium graminearum = assay: Antifungal activity against Gibberella zeae at 50 ug/mL by agar plate method; assay type: functional, organism-based
Colletotrichum = assay: Antifungal activity against Colletotrichum gossypii at 50 ug/mL by agar plate method; assay type: functional
Botrytis = assay: Antifungal activity against Botrytis […] at 50 ug/mL by agar plate method; assay type: functional
Rhizoctonia solani [3] = assay: Ratio of triadimefon EC50 to compound EC50 for Rhizoctonia solani; assay type: functional

Row | Compound | Activity [1] | EC50 (Rhizoctonia solani [2]) | Activity (Fusarium oxysporum) | Activity (Fusarium graminearum) | Activity (Colletotrichum) | Activity (Botrytis) | Ratio EC50 (Rhizoctonia solani [3])
1 | Cc1ccc(Cn2cnc(C(=O)N(C#N)CCCc3ccccc3)c2C)cc1 | inactive | 4.64 µg/mL (≈ 12.5 µM) | inactive | inactive | inactive | inactive | 
2 | Cc1ccc(Cn2cnc(C(=O)N(C#N)Cc3ccccc3F)c2C)cc1 | inactive | 8.76 µg/mL (≈ 24.2 µM) | inactive | inactive | inactive | inactive | 
3 | CCCCn1cnc(C(=O)N(C#N)Cc2ccccc2F)c1C | inactive | 13.3 µg/mL (≈ 42.2 µM) | inactive | inactive | inactive | inactive | 
4 | Cc1c(C(=O)N(C#N)Cc2ccc(F)cc2)ncn1Cc1ccc(F)cc1 | inactive | 20.8 µg/mL (≈ 56.8 µM) | inactive | inactive | inactive | inactive | 
5 | Cc1c(C(=O)N(C#N)Cc2ccc(F)cc2)ncn1Cc1cccc([N+](=O)[O-])c1 | inactive | 3.61 µg/mL (≈ 9.18 µM) | inactive | inactive | inactive | inactive | 
6 | Cc1c(C(=O)N(C#N)Cc2ccccc2)ncn1Cc1ccccc1 | inactive | 7.74 µg/mL (≈ 23.4 µM) | inactive | inactive | inactive | inactive | 
7 | Cc1ccc(Cn2cnc(C(=O)N(C#N)Cc3ccccc3Cl)c2C)cc1 | inactive | 3.53 µg/mL (≈ 9.32 µM) | inactive | inactive | inactive | inactive | 
8 | CCCCN(C#N)C(=O)c1ncn(CCCC)c1C | inactive | 9.01 µg/mL (≈ 34.3 µM) | inactive | inactive | inactive | inactive | 
9 | CCCCn1cnc(C(=O)N(C#N)Cc2ccccc2)c1C | inactive | 7.98 µg/mL (≈ 26.9 µM) | inactive | inactive | inactive | inactive | 
10 | Cc1ccc(Cn2cnc(C(=O)N(C#N)Cc3ccc(F)cc3)c2C)cc1 | inactive | 3.04 µg/mL (≈ 8.39 µM) | inactive | inactive | inactive | inactive | 
11 | Cc1c(C(=O)N(C#N)Cc2ccc(F)cc2F)ncn1Cc1ccc(F)cc1 | inactive | 2.63 µg/mL (≈ 6.84 µM) | inactive | inactive | inactive | inactive | 5.6
12 | Cc1c(C(=O)N(C#N)Cc2ccccc2)ncn1Cc1ccc(F)cc1 | inactive | 31.3 µg/mL (≈ 89.9 µM) | inactive | inactive | inactive | inactive | 
13 | Cc1ccc(CN(C#N)C(=O)c2ncn(Cc3ccc(C)cc3)c2C)cc1 | inactive | 15.8 µg/mL (≈ 44.1 µM) | inactive | inactive | inactive | inactive | 
14 | Cc1c(C(=O)N(C#N)Cc2ccccc2F)ncn1Cc1cccc([N+](=O)[O-])c1 | inactive | 6.67 µg/mL (≈ 17 µM) | inactive | inactive | inactive | inactive | 
15 | CC(C)(C)C(=O)C(Oc1ccc(Cl)cc1)n1cncn1 (stereo not drawn) [TRIADIMEFON] |  | 14.7 µg/mL (≈ 50 µM) |  |  |  |  | 
16 | Cc1ccc(Cn2cnc(C(=O)N(C#N)Cc3ccccc3)c2C)cc1 | inactive | 3.04 µg/mL (≈ 8.83 µM) | inactive | inactive | inactive | inactive | 
17 | COC(=O)c1ccccc1CN(C#N)C(=O)c1ncn(Cc2ccc(F)cc2)c1C | inactive | 13.3 µg/mL (≈ 32.6 µM) | inactive | inactive | inactive | inactive | 
